Experimental data from the supplement of paper PMC10307832.

How the values were obtained:
Assay in all cases: relative viability (nuclei count vs DMSO), 5 days (fraction); higher = more cells survive
[1] = compound: CO[C@H]1C[C@@H]2CC[C@@H](C)[C@@](O)(O2)C(=O)C(=O)N2CCCC[C@H]2C(=O)O[C@H]([C@H](C)C[C@@H]2CC[C@@H](OCCO)[C@H](OC)C2)CC(=O)[C@H](C)/C=C(\C)[C@@H](O)[C@@H](OC)C(=O)[C@H](C)C[C@H](C)/C=C/C=C/C=C/1C [Everolimus] + CC(=O)c1c(C)c2cnc(Nc3ccc(N4CCNCC4)cn3)nc2n(C2CCCC2)c1=O [Palbociclib] (partner 0.5 µM)
Procedure, shortened: (§1)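 A single step with final 0.05% Triton X-100, 1% formaldehyde and 1 ug/ml Hoechst fixed the cells and stained nuclei 5 days after treatment. Lung cancer cell lines in 1536-well plates had been treated by pin tool the day after seeding with one drug alone or a fixed anchor-drug dose plus five library-drug doses (not always all listed) in √10 steps, and nuclei were counted on 4× images. Relative viability is the ratio of nuclei in treated wells to nuclei in vehicle wells, taken as the median of duplicate plates.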

[2] = compound: CO[C@H]1C[C@@H]2CC[C@@H](C)[C@@](O)(O2)C(=O)C(=O)N2CCCC[C@H]2C(=O)O[C@H]([C@H](C)C[C@@H]2CC[C@@H](OCCO)[C@H](OC)C2)CC(=O)[C@H](C)/C=C(\C)[C@@H](O)[C@@H](OC)C(=O)[C@H](C)C[C@H](C)/C=C/C=C/C=C/1C [Everolimus] + CC(C)C[C@H](NC(=O)[C@H](Cc1ccccc1)NC(=O)c1cnccn1)B(O)O [Bortezomib] (partner 0.002 µM)
Procedure, shortened: as §1

[3] = compound: CO[C@H]1C[C@@H]2CC[C@@H](C)[C@@](O)(O2)C(=O)C(=O)N2CCCC[C@H]2C(=O)O[C@H]([C@H](C)C[C@@H]2CC[C@@H](OCCO)[C@H](OC)C2)CC(=O)[C@H](C)/C=C(\C)[C@@H](O)[C@@H](OC)C(=O)[C@H](C)C[C@H](C)/C=C/C=C/C=C/1C [Everolimus] + COc1cc2c(Oc3ccc(NC(=O)C4(C(=O)Nc5ccc(F)cc5)CC4)cc3F)ccnc2cc1OCCCN1CCOCC1 [Foretinib] (partner 0.25 µM)
Procedure, shortened: as §1

[4] = compound: CO[C@H]1C[C@@H]2CC[C@@H](C)[C@@](O)(O2)C(=O)C(=O)N2CCCC[C@H]2C(=O)O[C@H]([C@H](C)C[C@@H]2CC[C@@H](OCCO)[C@H](OC)C2)CC(=O)[C@H](C)/C=C(\C)[C@@H](O)[C@@H](OC)C(=O)[C@H](C)C[C@H](C)/C=C/C=C/C=C/1C [Everolimus] + CS(=O)(=O)N1CCN(Cc2cc3nc(-c4cccc5[nH]ncc45)nc(N4CCOCC4)c3s2)CC1 [Pictilisib] (partner 1 µM)
Procedure, shortened: as §1

Row | Cell Line | relative viability ([1]; first compound 0.01 µM) | relative viability ([1]; first compound 0.03162 µM) | relative viability ([1]; first compound 0.1 µM) | relative viability ([1]; first compound 0.3162 µM) | relative viability ([1]; first compound 1 µM) | relative viability ([2]; first compound 0.01 µM) | relative viability ([2]; first compound 0.03162 µM) | relative viability ([2]; first compound 0.1 µM) | relative viability ([2]; first compound 0.3162 µM) | relative viability ([2]; first compound 1 µM) | relative viability ([3]; first compound 0.01 µM) | relative viability ([3]; first compound 0.03162 µM) | relative viability ([3]; first compound 0.1 µM) | relative viability ([3]; first compound 0.3162 µM) | relative viability ([3]; first compound 1 µM) | relative viability ([4]; first compound 0.01 µM) | relative viability ([4]; first compound 0.03162 µM) | relative viability ([4]; first compound 0.1 µM) | relative viability ([4]; first compound 0.3162 µM) | relative viability ([4]; first compound 1 µM)
1 | NCI-H1437 | 0.319 | 0.313 | 0.253 | 0.239 | 0.248 | 0.443 | 0.505 | 0.342 | 0.302 | 0.413 | 1.29 | 1.18 | 1.21 | 1.23 | 1.15 | 0.159 | 0.149 | 0.135 | 0.165 | 0.18
2 | NCI-H1650 | 0.305 | 0.293 | 0.304 | 0.278 | 0.238 | 0.196 | 0.186 | 0.179 | 0.243 | 0.199 | 0.827 | 0.928 | 0.973 | 0.966 | 1.01 | 0.47 | 0.473 | 0.477 | 0.515 | 0.469
3 | NCI-H1651 | 0.474 | 0.405 | 0.363 | 0.351 | 0.341 | 0.766 | 0.66 | 0.8 | 0.731 | 0.564 | 0.523 | 0.556 | 0.562 | 0.431 | 0.558 | 0.368 | 0.324 | 0.352 | 0.427 | 0.39
4 | NCI-H1666 | 0.567 | 0.642 | 0.599 | 0.693 | 0.631 | 0.644 | 0.527 | 0.494 | 0.56 | 0.533 | 0.885 | 0.925 | 0.972 | 0.926 | 0.875 | 0.295 | 0.344 | 0.309 | 0.341 | 0.295
5 | NCI-H1734 | 0.285 | 0.241 | 0.288 | 0.251 | 0.258 | 0.529 | 0.624 | 0.497 | 0.515 | 0.546 | 0.495 | 0.529 | 0.479 | 0.467 | 0.541 | 0.285 | 0.341 | 0.259 | 0.316 | 0.336
6 | NCI-H1755 | 0.407 | 0.395 | 0.378 | 0.361 | 0.356 | 0.785 | 0.492 | 0.736 | 0.723 | 0.714 | 0.791 | 0.751 | 0.653 | 0.822 | 0.632 | 0.334 | 0.381 | 0.292 | 0.354 | 0.329
7 | NCI-H1915 | 0.398 | 0.347 | 0.316 | 0.378 | 0.334 | 0.917 | 0.864 | 0.977 | 0.79 | 0.882 | 1.04 | 0.975 | 0.838 | 0.972 | 0.79 | 0.622 | 0.33 | 0.493 | 0.625 | 0.555
